From patent US8877933B2, “Thermodynamically stable form of a tosylate salt” (Bayer Intellectual Property GmbH, priority 2004, dated 2014)

Assay: Thermodynamic and storage stability of the crystal forms of the compound of the formula (I)
Type: physicochemical
Conditions: for thermodynamic stability of the crystal form: room temperature

Row | SMILES | thermodynamic stability of the crystal form | storage stability (after processing via suspensions)
1 | CNC(=O)c1cc(Oc2ccc(NC(=O)Nc3ccc(Cl)c(C(F)(F)F)c3)cc2)ccn1.Cc1ccc(S(=O)(=O)O)cc1 [polymorph II, 4-{4-[({[4-Chloro-3-(trifluoromethyl)phenyl]amino}carbonyl)amino]phenoxy}-N-methylpyridine-2-carboxamide tosylate in the polymorph II] | metastable | 
2 | CNC(=O)c1cc(Oc2ccc(NC(=O)Nc3ccc(Cl)c(C(F)(F)F)c3)cc2)ccn1.Cc1ccc(S(=O)(=O)O)cc1 [polymorph I, 4-{4-[({[4-chloro-3-(trifluoromethyl)phenyl]amino}carbonyl)-amino]phenoxy}-N-methylpyridine-2-carboxamide tosylate in the polymorph I] | thermodynamically stable at room temperature | storage-stable even after processing via suspensions
